{"source": "patent US6321750A", "about": "“Condom lubricants with zinc salts as anti-viral additives” (priority 1999, dated 2001)", "key": {"[1]": {"tested_on": "male genitals", "test": "Irritation test on male genitals / urethra", "conditions": "gel in K-Y Lubricating Jelly, about 5% w/v; passive and active rubbing", "method": "In all examples, the test subjects were a monogamous married couple, free of genital herpes and all other known sexually transmitted viruses.\nThe mixture of zinc acetate in K-Y Lubricating Jelly was tested on the male genitals, passively at first and then with active rubbing.\nAbout 0.5 grams were dissolved in several drops of distilled water and tested on the forearm and genitals."}, "[2]": {"tested_on": "genitals (both persons, during intercourse)", "test": "Irritation test of lubricant during intercourse / human volunteers", "assay_type": "in vivo", "source_text": "Subsequently, the gel formulation was applied topically and used as a sexual lubricant during intercourse. Both people wiped off the excess with a tissue after intercourse, but neither person showered or washed off the lubricant until the following day. It caused no irritation to either person."}, "[3]": {"tested_on": "HIV-1", "test": "High-titer HIV infectivity test (two-step incubation, p24 ELISA)", "assay_type": "cell-based", "conditions": "for HIV infectivity: high-titer stock", "method": "The initial set of HIV tests were carried out at Biotech Research Laboratories (Rockville, Md.). The HIV-1 viral isolate and H-9 cell line were originally supplied by Robert Gallo of the NCI.\n(§1) In a first set of tests, 20 mg of zinc acetate powder (ZnAc, MW 183.4) was mixed in 1 ml RPMI cell culture medium (Whittaker Corp.). This 2% (w/v) salt mixture contained 7 mg/ml elemental Zn. […] Therefore, a small quantity of HCl was added until the mixture became clear; the pH was about 5.5. The Zn concentration was reduced by half (and the pH was raised somewhat) when an equal volume (1 ml) of cell-free high-titer HIV-1 viral stock was added. The zinc/virus mixture was stirred and incubated for 2 hours at 37° C. (i.e., normal body temperature).\n(§2) Following this first incubation step, the zinc/virus mixtures were diluted at 1:10, 1:30, and 1:100 ratios using culture medium, and aliquots were added to equal volumes of culture media containing H-9 lymphocytes that had been pretreated overnight with 2 μg/ml Polybreen. The lymphocyte mixtures were incubated for three hours at 37° C.; zinc concentrations during this step were 180, 60, and 18 μg/ml for the 1:10, 1:30, and 1:100 dilutions.\nThe cell aliquots were then washed twice, using culture medium, to remove free p24 proteins that are present in the initial viral stock. Such proteins will skew ELISA readings if not removed by washing. Cells were then resuspended in fresh medium containing 10% fetal calf serum (FCS) and cultured for 20 days. During this period, each tube was periodically sampled by hand-mixing the tube, withdrawing 100 μl of liquid from the top, and testing the sample for p24 antigens using ELISA assays.\nA positive control was used at each dilution. Viral aliquots not treated with zinc were identically diluted, mixed with lymphocytes, cultured, and tested. Negative controls were also run, in which H-9 cells were plated and grown in the absence of any virus or zinc; these provided background levels that vary slightly from day to day, depending on factors such as spectrophotometer calibrations and rinsing conditions."}, "[4]": {"tested_on": "HIV", "test": "HIV infectivity tests with zinc acetate 1.5% (diluted and undiluted viral stocks, p24 ELISA)", "assay_type": "cell-based, HIV-1", "source_text": "The tests described above, in Example 8, used an undiluted high-titer viral stock, which contained at least ten million infectious viral particles per ml. That concentration can be achieved in a laboratory only by special culturing, purification, and concentration techniques, and it is vastly higher than would actually occur in the ejaculate of an HIV-infected person (especially someone who is not in the end stages of the disease, and who might pose a significant risk of transmitting the virus to an unknowing sexual partner).\nThese tests used serial dilutions of the viral stocks, at ranges from 1:10 to 1:10,000. To create the 1:10 dilution, 500 μl of viral stock was mixed with 4.5 ml of RPMI medium. Subsequent dilutions added 9 ml of RPMI medium to 1 ml from the preceding dilution.\n(§3) A 2 ml aliquot from each dilution was mixed with an equal volume of 3% ZnAc dissolved in sterile distilled water; after mixing, the zinc concentration was 5.3 mg/ml Zn. These mixtures were incubated for 2 hours, then diluted with culture medium at 1:30, 1:100, and 1:1000 to reduce the toxicity of the zinc to lymphocytes. Four ml of lymphocytes were mixed with 4 ml of each zinc/virus mixture. The zinc/virus/cell mixtures were incubated at 37° C. for 3 hours; zinc concentrations were 88, 27, and 2.7 μg/ml in the 30, 100, and 1000 dilutions.\nFollowing the 3 hour incubation, the cells were washed twice in RPMI medium and resuspended in fresh medium containing 10% FCS. Each solution was inoculated (2 ml; estimated minimum 2×10^5 cells per well) into each of three wells in a 12-well plate and cultured for 27 days, with periodic sampling and measuring of p24 antigens.\nPositive controls used 1:1000 dilutions of viral stock mixed with zinc-free RPMI. These controls were consistently highly infectious, even though their concentrations were 100× lower than the 1:10 mixtures in which infectivity was eliminated by zinc treatment. Other positive controls were tested at up to 100,000× dilutions; these were highly infective in two out of the three plates tested.\nWhile carrying out the viral dilution tests, tests were also performed using 2 ml of 3% ZnAc solution in distilled water mixed with 2 ml aliquots of undiluted viral stock. The zinc/virus mixtures were incubated for 2 hours, diluted with RPMI at 1:100 and 1:1000 ratios, and mixed with lymphocytes for three hours; zinc concentrations were 27 and 2.7 μg/ml. The cells were washed twice, inoculated into 12 well plates as described above, and cultured for 27 days."}, "[5]": {"tested_on": "HIV", "test": "HIV precipitation test", "conditions": "2% ZnAc with equal volume of undiluted viral stock", "method": "Precipitation tests using HIV were also carried out Biotech Research Laboratories, using 2% ZnAc which was mixed with an equal volume of undiluted viral stock, incubated for 24 hours, and centrifuged at 1500 rpm in a tabletop centrifuge for 5 minutes. The supernatant was sampled ([…]) and serially diluted by medium, at 1:10 followed by 2× dilutions (1:20, 1:40, 1:80, etc) to a maximum dilution of 1:10240. Each dilution was analyzed spectrophotometrically to determine the concentration of viruses suspended in solution. After sampling, each tube was hand-mixed and incubated for 24 hours. The solution near the top of the tube was sampled again, serially diluted, and tested using the ELISA assay. The tube was hand-mixed again, incubated for three more days, and sampled again to obtain Day 5 values."}, "[6]": {"tested_on": "H-9 lymphocytes", "test": "Toxicity to lymphocytes", "assay_type": "cell-based", "method": "as §1, §2, §3"}, "[7]": {"tested_on": "several cell lines", "test": "Zinc toxicity in several cell lines", "conditions": "read-out: concentration at which toxicity began to appear in mild form, all comparable"}}, "note": "“Also recorded” adds a separate entry of the source.", "data": [{"substance": "Zinc acetate", "values": [{"measurement": "irritation, male genitals", "setting": "[1]", "value": "no irritation"}, {"measurement": "irritation during intercourse", "setting": "[2]; gel in K-Y Lubricating Jelly, about 5% w/v", "value": "no irritation; also recorded: Neither of these salts caused any irritation"}, {"measurement": "irritation of gel / genital lubricant formulations", "setting": "[2]; in gel or genital lubricant, human volunteers", "value": "did not cause any irritation"}, {"measurement": "p24 concentrations", "setting": "[3]; 1% zinc acetate 2 h, diluted 1:30 (60 μg/ml Zn), 20 days culture", "value": "indistinguishable from background levels"}, {"measurement": "HIV infectivity", "setting": "[3]; 1% zinc acetate 2 h, diluted 1:30 (60 μg/ml Zn)", "value": "completely eliminated"}, {"measurement": "HIV infectivity", "setting": "[3]; 1% zinc acetate 2 h, diluted 1:30 (60 μg/ml Zn), listed as ZnAc", "value": "completely abolished viral infectivity"}, {"measurement": "HIV infectivity", "setting": "[3]; 1% zinc acetate 2 h, diluted 1:100 (18 μg/ml Zn)", "value": "reduced and delayed"}, {"measurement": "HIV infectivity", "setting": "[3]; 1% zinc acetate 2 h, diluted 1:100 (18 μg/ml Zn), listed as ZnAc", "value": "suppressed and retarded HIV infectivity"}, {"measurement": "inhibition of HIV particles (summary of Examples 8-10)", "setting": "[3]; two-step incubation assay, FIGS. 1-4", "value": "inhibited or entirely inactivated the HIV particles"}, {"measurement": "HIV infectivity", "setting": "[4]; 10×, 100×, 1000× diluted stocks, zinc/virus diluted 1:1000 (2.7 μg/ml Zn)", "value": "completely blocked infectivity"}, {"measurement": "HIV infectivity", "setting": "[4]; diluted stocks, zinc/virus diluted 1:100 (27 μg/ml Zn)", "value": "viral infectivity was completely blocked"}, {"measurement": "HIV infectivity", "setting": "[4]; diluted viral stocks, 1.5% zinc acetate 2 h", "value": "completely eliminated"}, {"measurement": "HIV infectivity", "setting": "[4]; diluted viral stocks, 1.5% zinc acetate 2 h, listed as ZnAc", "value": "completely eliminated the infectivity"}, {"measurement": "HIV infectivity (FIG. 4)", "setting": "[4]; high-titer stocks, various concentrations of zinc acetate", "value": "either eliminated or suppressed"}, {"measurement": "HIV infectivity", "setting": "[4]; undiluted stock, zinc/virus diluted 1:100 (27 μg/ml Zn), 27 days", "value": "completely prevented infectivity"}, {"measurement": "HIV infectivity", "setting": "[4]; undiluted stock, zinc/virus diluted 1:1000 (2.7 μg/ml Zn), 27 days", "value": "delayed the onset of infection"}, {"measurement": "virus precipitation", "setting": "[5]", "value": "substantial precipitation of the virus"}, {"measurement": "cell mortality", "setting": "[6]; 88 μg/ml Zn, 3 h", "value": "significant cell mortality"}, {"measurement": "lymphocyte mortality", "setting": "[6]; 1:10 dilution, 180 μg/ml Zn, 3 h", "value": "substantial mortality to the lymphocytes"}, {"measurement": "lymphocyte growth", "setting": "[6]; 1:30 dilution, 60 μg/ml Zn, visual observation", "value": "retarded cell growth during the first few days"}, {"measurement": "cell mortality", "setting": "[6]; lower levels (27 and 2.7 μg/ml Zn), 3 h", "value": "no cell mortality"}, {"measurement": "MCC", "setting": "[7]", "value": "~100", "unit": "mM"}]}]}
